Holding throughout (format): physicochemical
Series [1] can be described thus: Determining water solubility (pH 7 buffer, HPLC of supernatant). Conditions: for Concentration measured by HPLC after treatment, %: pH 7 buffer, 20° C. As to the method: A stock pH 7 buffer solution was prepared by adding aqueous sodium hydroxide solution (0.1 M, 145 mL) to aqueous potassium dihydrogen phosphate solution (0.1 M, 250 mL), and then adding sufficient distilled water to adjust the final volume to 500 mL. At least 1 time and up to about 5 times the amount of tribenuron-methyl needed for saturation was added to a mixing vessel containing stock buffer solution at the test temperature (e.g., 20° C.). The mixture was magnetically stirred in the dark while being maintained at the test temperature. Samples were periodically removed for analysis. The samples were centrifuged using a high speed, temperature-controlled centrifuge at the test temperature for about 20 minutes at >12000 G to remove suspended particles. An aliquot of each supernatant was taken for analysis. The concentration of tribenuron-methyl in the supernatant was determined by a high pressure liquid chromatography (HPLC) with a reversed phase chromatography column and UV detection. The method should include development of best-fit calibration curves based on at least three standards using linear regression analysis. Samples were successively withdrawn from the mixing vessel and analyzed until three successive samples show little or no variation in concentration. The test is preferably replicated to ensure accuracy.

The nature of series [2]: Cleanout test (residual tribenuron-methyl in acetonitrile extract of rinsed bottle). Conditions: for Cleanout rating, % (concentration of tribenuron-methyl in the acetonitrile solution): lower rating = more effective cleanout. As to the method:
The cleanout test was conducted by dispersing in water a sample to produce a concentration that is normally used when applying the herbicide: 25% tribenuron-methyl. The sample was added to tap water (300 mL) in a 400 mL beaker and magnetically stirred for 2 minutes. The mixture was then stirred for 2 minutes, whereupon the resulting dispersion was dispensed in three 100 mL aliquots to 4-oz (118 mL) polyethylene bottles. The bottles were capped, inverted twice and allowed to stand overnight.
After standing overnight, each individual bottle was inverted twice and the liquid contents were then poured out. Tap water (10 mL) was added and the bottle was inverted until all sediment was re-suspended, whereupon the contents were poured out. Tap water (100 mL) was added and the bottle was inverted twice and then allowed to stand undisturbed for 10 minutes. The bottle was inverted twice more and the contents were poured out. Acetonitrile (10 mL) was added to the bottle to extract any remaining material. The acetonitrile solution was analyzed by reversed-phase liquid chromatography with UV detection. The cleanout rating (the concentration of tribenuron-methyl herbicide in the acetonitrile solution) is reported in % in Table 6 below.

A short description of series [3]: Viscosity (stated finding, no method given).
The mark [4] stands for this setting: OD formulation, measured vs original concentration 40%.
The mark [5] stands for this setting: OD formulation, original concentration 40%.
The mark [6] stands for this setting: SG formulation, measured vs original concentration 25%.
Where [7] appears, read: SG formulation, original concentration 25%.
Setting [8] is: WG formulation, measured vs original concentration 25%.
The mark [9] stands for this setting: WG formulation, original concentration 25%.

Each structure is given as a SMILES string.

Consider `COC(=O)c1ccccc1S(=O)(=O)NC(=O)N(C)c1nc(C)nc(OC)n1` [Amorphous tribenuron-methyl (prepared in Example 1)] [methyl 2-[4-methoxy-6-methyl-1,3,5-triazin-2-yl(methyl)carbamoylsulfamoyl]benzoate, reference compound], for which the results for the Solubility in series [1] (setting [4]), in series [1] (setting [6]) and in series [1] (setting [8]) were 35%, 60% and 48%, respectively. In addition, the “Concentration measured by HPLC after treatment, %” value in series [1] (setting [5]) is given as 14%; in series [1] (setting [7]), 15%; in series [1] (setting [9]), 12%. The “Cleanout rating, % (concentration of tribenuron-methyl in the acetonitrile solution)” value amounted to 26% in series [2] (OD formulation, prepared in Example 1); 10% in series [2] (SG formulation, prepared in Example 1); 13% in series [2] (WG formulation). Further, the “Viscosity (in words)” value in series [3] (listed as tribenuron-methyl in amorphous state) is recorded as “highly viscous”.

With `COC(=O)c1ccccc1S(=O)(=O)NC(=O)N(C)c1nc(C)nc(OC)n1` [Tribenuron-methyl, crystalline modification I, 98% (prepared] [methyl 2-[4-methoxy-6-methyl-1,3,5-triazin-2-yl(methyl)carbamoylsulfamoyl]benzoate], the Solubility in series [1] (setting [4]) is 88%; in series [1] (setting [6]), 99.6%; in series [1] (setting [8]), 92%. Further, the “Concentration measured by HPLC after treatment, %” value in series [1] (setting [5]) was determined as 35%; in series [1] (setting [7]), 24.9%; in series [1] (setting [9]), 23%. Also, the “Solubility (in words)” value in series [1] (compared with amorphous tribenuron-methyl) is listed as “significant increase in its solubility”. The “Cleanout rating, % (concentration of tribenuron-methyl in the acetonitrile solution)” value in series [2] (OD formulation) is 5%; in series [2] (SG formulation), 0.1%; in series [2] (WG formulation) it was 2%. Besides, in series [2] (compared with known amorphous tribenuron-methyl product), the “Cleanout properties (in words)” value is reported as “markedly superior cleanout properties”. For the same compound, in series [3] (listed as crystalline modification I of tribenuron-methyl), the “Viscosity (in words)” value was “significant decrease in its viscosity”.
